For one assay, the system named is TNBS-induced enteritis. The experiment in a line: TNBS-induced enteritis model. The format is in vivo, rat. Here is the method: An enteritis animal model induced with 2,4,6-trinitrobenzenesulfonic acid (TNBS) is widely used as Crohn's disease model since the inflammatory finding is pathologically similar to that of human Crohn's disease. In addition, the enteritis model was used in the non-clinical study of mesalazine that is a medicament for treating Crohn's disease. Thus, this enteritis model was used as Crohn's disease model for evaluating the present compound.
Rats were made to be fasted for 24 or 48 hours, and the body weight were measured. The rats were laparotomized under isoflurane anesthesia, and 50% ethanol (0.25 mL) containing 60 mg/mL 2,4,6-trinitrobenzenesulfonic acid (TNBS) was injected into the large intestine from the cecum side toward the anal side to induce the injury. Each group composed of 12 rats was set, and vehicle, the present compound, or salazosulfapyridine (SASP) which is an already-existing drug for treating inflammatory bowel disease were administered for 7 days from the first day after the injection of TNBS. On the 8th day, each rat was laparotomized under anesthesia and killed by exsanguination. The large intestine was removed from the anus to the cecum, the large intestine was longitudinally incised, and the incised large intestine was washed with a cold saline. The lesion area of the large intestine was photographed with a digital camera. The area of the lesion area in the photograph of the large intestine was measured using image analyzing program.
Each compound was orally administered at a dose of 100 mg/kg twice a day from one day after inducing enteritis with TNBS. Each area of the lesion area on the 8th day was compared.

The subject of the next assay is TNF-α. As to the kind of experiment: TNF-α production by stimulated PBMC (ELISA). The format is cell-based. Conditions: stimulated human PBMC, 3 days, culture supernatant. Here is the method: (§1) Peripheral blood (30 mL) derived from a healthy adult was layered on a lymphocyte tube Leucosep™ containing Lymphoprep (15 mL), and the tube was centrifuged at room temperature at 2000 rpm for 20 minutes. After the centrifugation, the upper 5 mL of the plasma was removed from the peripheral blood mononuclear cell (PBMC) layer with an aspirator, and the left solution containing the PBMC layer was collected into a new 50 mL tube. To the collected solution was added an equal amount of Hanks' balanced salt solution (HBSS) to dilute the cell suspension. The diluted solution was centrifuged at 4° C. at 1800 rpm for 5 minutes. After the centrifugation, the supernatant was discarded, the rest was suspended in 10 mL of AIM-V. The suspension was centrifuged at 4° C. at 1500 rpm for 5 minutes, and the supernatant was discarded. The same washing process was repeated one more time. After the centrifugation, the supernatant was discarded, and the obtained cell was suspended in 5% FBS-containing AIM-V to be used in the following tests.
(§2) To 96-well round-bottom plate were added 100 μL of medium containing the compound, 100 μL (0.5×10^5 beads) of anti-CD3/CD28/CD2-loaded bead suspension (Miltenyi), and 100 μL (1×10^5 cells) of PBMC suspension. The mixture was incubated at 37° C. in 5% CO2 for 3 days.
Background: An ELISA detects its analyte on a solid surface through an enzyme-linked reagent.

Assay [1] has as its system naive T cell transfer model of colitis. The experiment in a line: naive T cell transfer model of colitis (Crohn's disease mouse model), histological scoring of large intestine. The assay is classed as in vivo. An excerpt:
From spleen of Balb/c mouse, naive T cell (CD4+CD62L+CD44−) was isolated with antibody-coated magnetic beads. The isolated naive T cell (5×10^5 cells/mouse) was transplanted in abdominal cavity of SCID mouse which is a severe combined immunodeficiency animal. The present compound was orally administered to the mouse once a day at each dose defined in Table 1 below, from the first day of the transplantation for Test 1, or from the 2nd week after the transplantation for Test 2, until 5 weeks after the transplantation. [table] […] The anti-TNF-α antibody was intraperitoneally administered to the mouse twice a week at each dose defined in Table 2 below, from the 2nd week after the transplantation, for 2 weeks. [table] At 5th week for Tests 1 and 2, and at 4th week for Test 3, the large intestine was removed, and the length and weight of the large intestine were measured. In addition, the large intestine was fixed with formalin to carry out pathological analysis. From the removed large intestine, the anus part, the center part, and the cecal part were cut out each in about 0.5 cm, and each part was fixed with formalin. The paraffin block thereof was prepared, sliced, and subjected to H&E staining. The H&E stained slice was examined with a microscope to score it histologically. The histological scoring was carried out by scoring the inflammatory cell infiltrate, the Goblet cell loss, and the hyperplasia of mucosal epithelium, based on the standard (0-4) defined in Table 3 below. [table]

For a further assay, the system named is DSS-induced colitis. The experiment in a line: DSS-induced colitis model, stool scores. The assay is classed as in vivo, rat. Conditions: for deaths: 8 animals per group. An excerpt:
A colitis model induced by dextran sulfate sodium (DSS) is widely used as an experimental ulcerative colitis model having similarities of human ulcerative colitis regarding suppression of weight gain, colitis symptoms such as bloody stools and diarrhea, and injury formation in the large intestine. The effect of the present compound on the ulcerative colitis model was examined, and it was compared with salazosulfapyridine (SASP) clinically used as a therapeutic agent for ulcerative colitis.
Symptoms of colitis were induced by allowing rats to freely drink 3% dextran sulfate sodium (DSS) solution for 10 days. […] For the observation of stool symptoms, the degree of stool condition was scored as the score of stool firmness (Stool Consistency Score: 0, 1, 2, 3) and blood stool (Bloody Stool Score: 0, 1, 2, 3). The total of Stool Consistency Score and Bloody Stool Score was taken as the Total Stool Score. Each group was composed of 8 animals. Salazosulfapyridine (SASP), which is an already-existing drug for treating inflammatory bowel disease, the present compound or the vehicle were administrated for 10 days from the start date of 3% DSS freely drinking.

A further assay has as its system Streptococcus spp. The experiment in a line: antibacterial activity against intestinal bacteria (MIC). The format is cell-based. The protocol:
(§3) The antibacterial activity of the present compound was examined against Bacteroides spp and Streptococcus spp, which are enterobacteria.
(§4) The antibacterial activity (minimum inhibitory concentration (MIC)) was assayed by agar plate dilution method or broth microdilution method, which is based on Clinical and laboratory standards institute (CLSI). Specifically, the experiment was performed as follows. The compound of the present invention or the control substance was prepared by 2-fold serial dilution, respectively, and test strains were inoculated on the medium suitable for each test strain. After the inoculation followed by incubation at 37° C. under aerobic or anaerobic conditions, the minimum concentration at which colony formation was not observed in agar plate dilution method, or the minimum concentration without turbidity of the culture medium (the bacterial growth was not observed) in broth microdilution method was determined as MIC.

Another assay deals with Bacteroides spp. The assay is described as above. The assay is classed as cell-based. Here is the method:
as §3, §4

In a further assay the test system is IFN-γ. As to the kind of experiment: IFN-γ production by stimulated PBMC (ELISA). The assay is classed as cell-based. The following applies: stimulated human PBMC, 3 days, culture supernatant. The protocol: as §1, §2
Setting [2] is: 11th day, present compound 1, 3, 10 mg/kg (P<0.01) or SASP 100 mg/kg (P<0.05) orally twice a day, Dunnett's test.
[3] abbreviates: present compound groups, orally twice a day.

The source of these data is patent publication US20210317111A1, “NOVEL MEDICAMENT FOR TREATING INFLAMMATORY BOWEL DISEASE” (OTSUKA PHARMACEUTICAL CO., LTD., priority 2018, published 2021).

Turning to `Cc1c(-c2cnc(N)c(C#N)c2)c(F)cc2c(=O)c(C(=O)O)cn(C3CC3)c12` [the present compound, 7-(6-amino-5-cyanopyridin-3-yl)-1-cyclopropyl-6-fluoro-1,4-dihydro-8-methyl-4-oxo-3-quinoline-carboxylic acid], the “area of the lesion area of the large intestine” value with TNBS-induced enteritis (100 mg/kg orally twice a day for 7 days, 8th day, vs vehicle control, P<0.01 t-test) was “significantly inhibited the area of lesion”. Further, the “number of death during the treatment” value in the assay with TNBS-induced enteritis (100 mg/kg orally twice a day, 12 rats per group) is recorded as “decreased the number of death”. For the same molecule, the “cytokine production (TNF-α)” value with TNF-α is “decreased”. In assay [1] (2.5 mg/kg or more, oral once a day from first day of transplantation until 5 weeks, vs solvent control), the “histological score (Test 1, preventive effect)” value was “inhibited the increase of the histological score”. Further, in assay [1] (5 mg/kg or more, oral once a day from 2nd week after transplantation until 5 weeks, vs solvent control), the “histological score (Test 2, therapeutic effect)” value was “significantly inhibited the increase of the histological score”. Further, the “histological score (Test 3, comparative study)” value in assay [1] (from 2nd week after transplantation for 2 weeks, present compound, CPFX, RFX oral once a day 10 mg/kg, antibody 25 mg/kg i.p. twice a week, 4th week) is given as “potent inhibitory effect at the same level as Normal group”. Besides, in the assay on DSS-induced colitis (1 mg/kg orally twice a day), the deaths result was “One”. For the same molecule, the deaths result with DSS-induced colitis (3 mg/kg orally twice a day) was “no death”. Moreover, in the assay with DSS-induced colitis (10 mg/kg orally twice a day), the “effect on blood stool score at 10 mg/kg” value was “remarkable deterioration suppression effect” and the deaths entry is reported as “no death”. The “bloody stool score vs vehicle control” value with DSS-induced colitis (11th day, present compound 1 mg/kg (P<0.05), 3, 10 mg/kg (P<0.01) or SASP 100 mg/kg orally twice a day, Dunnett's test) is on record as “Significant differences”. Moreover, in the assay with DSS-induced colitis (setting [2]), the “stool firmness (Stool Consistency Score) vs vehicle control” value is given as “Significant differences” and the “total stool score vs vehicle control” value is on record as “Significant differences”. For the same molecule, in the assay on DSS-induced colitis (setting [3]), the “day from which deterioration suppression effect on blood stool score was observed” value is on record as “from the 6th day” and the “day from which deterioration suppression effect on stool firmness score was observed” value was “from the 9th day”. Further, the antibacterial activity result in the assay on Streptococcus spp is given as “strong antibacterial activities”. Moreover, the antibacterial activity result in the assay on Bacteroides spp is “strong antibacterial activities”. Further, in the assay on IFN-γ, the “cytokine production (IFN-γ)” value is reported as “decreased”.
